The test addresses T1, Alpha-amylase 1A (Homo sapiens, UniProt P0DUB6).
T1 sequence (P0DUB6 whole entry): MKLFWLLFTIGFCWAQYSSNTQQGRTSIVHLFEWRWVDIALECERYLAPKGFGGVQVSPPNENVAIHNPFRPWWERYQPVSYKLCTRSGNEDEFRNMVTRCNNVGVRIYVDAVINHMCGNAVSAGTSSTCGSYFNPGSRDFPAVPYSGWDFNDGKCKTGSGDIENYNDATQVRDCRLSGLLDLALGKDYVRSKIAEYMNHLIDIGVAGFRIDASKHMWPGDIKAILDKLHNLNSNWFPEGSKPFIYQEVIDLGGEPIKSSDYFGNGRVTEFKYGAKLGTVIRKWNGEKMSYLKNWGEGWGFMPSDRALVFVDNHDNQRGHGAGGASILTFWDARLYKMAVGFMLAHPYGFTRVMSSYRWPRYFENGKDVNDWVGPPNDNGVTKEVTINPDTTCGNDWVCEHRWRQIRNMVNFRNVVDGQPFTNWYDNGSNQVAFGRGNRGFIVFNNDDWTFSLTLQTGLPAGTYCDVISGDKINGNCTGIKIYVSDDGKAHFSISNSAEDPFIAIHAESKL
Description: Inhibition of Alpha-amylase (unknown origin).

A word on the IC50: it is the point on the concentration scale where inhibition reaches its midpoint. For `C=CCN1C(=O)SC(=Cc2ccc(Cl)cc2Cl)C1=O`, the IC50 worked out at 44 nM.

The molecule `O=C(O)CN1C(=O)SC(=Cc2cn(-c3ccccc3)nc2-c2ccc([N+](=O)[O-])cc2)C1=O` yielded an IC50 of 4.1 nM.

Molecule `O=C(O)CN1C(=O)SC(=Cc2ccc3c(c2)OCO3)C1=O` displayed a concentration for half-maximal inhibition (IC50) of 10 nM.

`N#Cc1ccccc1-c1ccc(N2C(=O)SC(=Cc3ccccc3Oc3ccccc3)C2=O)cc1` came in with an IC50 of 0.13 nM. Compared with the last molecule, the IC50 is about 77-fold lower.

Values taken from BindingDB's records for PubMed 38252989 (IK Gujral Punjab Technical University).
